Experimental data taken from US20190216824A1, “Particles, Compositions and Methods for Ophthalmic and/or Other Applications” (priority 2016, published 2019).

Legend:
[1] = XRPD crystal form before and after milling (Example 8); format: physicochemical; details: input vs milled with F127
Source text: Particles were isolated by centrifugation, then resuspended in H2O and then recentrifuged. The wet sample was resuspended in H2O and deposited thinly and evenly onto a flat zero background sample holder (Rigaku 906165). The sample was allowed to air dry.
Milligram amounts were packed as an evenly thin layer of solid onto a zero background sample holder (Rigaku 906165).
X-ray Powder Diffraction (XRPD) patterns were obtained using a Rigaku MiniFlex 600 benchtop x-ray diffractometer equipped with a Cu X-ray tube (Cu/Kα=1.54059 Å), a six-position sample changer and a D/teX Ultra detector. […] Diffraction patterns were viewed and analyzed using PDXL analysis software provided by the instrument manufacturer. A reference standard silicon powder (NIST Standard Reference Material 640d) generated a peak at 28.43° and 28.45° two theta when samples were prepared as suspension in H2O (to simulate Procedure A) and Procedure B, respectively.
All input crystalline forms were arbitrarily designated as “A” forms. New forms that emerged after milling, if any, were sequentially designated as “B”, “C”, etc.

[2] = DLS size and PDI of cortisone and hydrocortisone milled with F127 (Example 7); format: physicochemical; details: suspension milled with 5% F127 in PBS pH 7.1, 25 hours
Protocol: A milling procedure was employed in which aqueous dispersions containing coarse compound particles were individually milled with F127 at near-neutral pH buffer using a grinding medium. Briefly, a slurry containing 5% of compound and 5% F127 in PBS (0.0067 M PO43), pH 7.1 was added to an equal bulk volume of 1-mm ceria-stabilized zirconium oxide beads in a glass vial (e.g., 2 mL of slurry per 2 mL of beads). A magnetic stir bar was used to agitate the beads, stirring at approximately 500 rpm at ambient conditions for 25 hours.
The milled suspensions were subjected to dynamic light scattering (DLS) measurements to determine particle size and polydispersity index (PDI, a measure of the width of the particle size distribution). The samples for DLS measurements were buffered with HyClone™ PBS (phosphate-buffered saline) to produce isotonic samples that have a physiologically relevant pH.

| Crystal form change after milling of "A" forms? [1] | PDI [2] | Size (Z-average) [2] [nm] | Compound |
| --- | --- | --- | --- |
| No | 0.074 | 225 | C[C@]12CCC(=O)C=C1CC[C@@H]1[C@@H]2C(=O)C[C@@]2(C)[C@H]1CC[C@]2(O)C(=O)CO [Compound 1, Cortisone] |
| No | 0.258 | 357 | C[C@]12CCC(=O)C=C1CC[C@@H]1[C@@H]2[C@@H](O)C[C@@]2(C)[C@H]1CC[C@]2(O)C(=O)CO [Compound 2, hydrocortisone] |
